Converted amounts (≈) assume the structure as drawn. “Also recorded” adds a separate entry of the source.
Experiments:
[1] = target: T1, K-Ras(G12D)·GppNHp and Raf1-RBD (Homo sapiens, UniProt P01116, G12D); experiment: TR-FRET Ras-Raf interaction assay, K-Ras(G12D); assay type: biochemical; conditions: KD2 Thr10 analogs compared to KD2
T1 construct: pET-Duet plasmids encoding BirA biotin-protein ligase and His-Avi-TEV-tagged K-Ras proteins were constructed; made in house; host or cells: E. coli BL21(DE3)

[2] = Solubility in aqueous buffer; assay type: physicochemical; conditions: for solubility (in words): KD2 Thr10 mutants, compared with parent peptide KD2
SW1990 cells = experiment: Ras signaling (p-Akt, p-Erk) in SW1990 cells, Western blot; assay type: cell-based; conditions: SW1990, 10 μM, 24 h
Description: SW1990 cells were obtained from ATCC and maintained in DMEM (Gibco)+10% heat-inactivated FBS (Axenia Biologix) supplemented with penicillin and streptomycin (Gibco). When indicated, cells were treated with drugs at 60-80% confluency at a final DMSO concentration of 1%. At the end of treatment period, cells were placed on ice and washed once with PBS. The cells were scraped with a spatula, pelleted by centrifugation (500×g, 5 min) and lysed in RIPA buffer supplemented with protease and phosphatase inhibitors (cOmplete and phosSTOP, Roche) on ice for 10 min. Lysates were clarified by high-speed centrifugation. Concentrations of lysates were determined with protein BCA assay (Thermo Fisher) and adjusted to 2 mg/mL with additional RIPA buffer. Samples were mixed with 5×SDS Loading Dye and heated at 95° C. for 5 min.
Gel Electrophoresis and Western Blot
Unless otherwise noted, SDS-PAGE was run with Novex 4-12% Bis-Tris gel (Invitrogen) in MES running buffer (Invitrogen) at 200V for 40 min following the manufacturer's instructions. Protein bands were transferred onto 0.45-μm nitrocellulose membranes (Bio-Rad) using a wet-tank transfer apparatus (Bio-Rad Criterion Blotter) in 1×TOWBIN buffer with 10% methanol at 75V for 45 min. […] The membrane was washed three times with TBST (5 min each wash) and imaged on a Li-COR Odyssey fluorescence imager.

T1 sequence (P01116 1-169 isoform P01116-2 G12D): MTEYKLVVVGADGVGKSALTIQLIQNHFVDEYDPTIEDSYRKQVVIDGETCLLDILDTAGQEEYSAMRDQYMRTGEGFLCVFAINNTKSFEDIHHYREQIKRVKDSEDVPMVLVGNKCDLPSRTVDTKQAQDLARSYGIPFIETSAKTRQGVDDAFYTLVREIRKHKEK

Row | SMILES | potency relative to KD2, Ras·Raf interaction [1] | solubility (in words) [2] | Ras signaling (p-Akt or p-Erk levels) (SW1990 cells) | also measured
1 | CC1CCN(C[C@@H]2NC(=O)[C@H](CCCNC(=N)N)NC(=O)[C@H](Cc3ccccc3)NC(=O)[C@H](CC(N)=O)NC(=O)[C@H](CCCNC(=N)N)NC(=O)[C@H](Cc3ccccc3)NC(=O)[C@H](CC(N)=O)NC(=O)[C@H](C(C)C)NC(=O)[C@H](Cc3ccccc3)NC(=O)[C@@H](Cc3ccc(O)cc3)NC(=O)CSC[C@@H](C(=O)NCC(N)=O)NC(=O)[C@H](CCCNC(=N)N)NC(=O)[C@H](Cc3ccccc3)NC2=O)CC1 [Aza-X] | > 10 fold |  |  | 
2 | NC[C@H](N)C(=O)O [Dap, 2,3-diaminoproprionic acid] |  | limited solubility |  | 
3 | N[C@@H](Cc1c[nH]cn1)C(=O)O [His, histidine] |  | limited solubility |  | 
4 | CC[C@H](C)[C@@H]1NC(=O)[C@H](Cc2ccccc2)NC(=O)[C@H](CCCCN)NC(=O)[C@H](CCC(=O)O)NC(=O)[C@H]([C@@H](C)O)NC(=O)[C@H](C(C)C)NC(=O)[C@H]([C@@H](C)CC)NC(=O)[C@H]([C@@H](C)CC)NC(=O)[C@@H](Cc2ccc(O)cc2)NC(=O)CSC[C@@H](C(=O)NCC(N)=O)NC(=O)[C@H](Cc2c[nH]cn2)NC(=O)[C@H](Cc2c[nH]cn2)NC(=O)[C@H](C(C)C)NC(=O)[C@H](Cc2c[nH]c3ccccc23)NC1=O [KD1] |  |  | did not observe any change; also recorded: does not inhibit Ras signaling | solubility ([2]; aqueous buffer): ~50 µM (≈ 94.2 µg/mL)
5 | CC(C)C[C@@H]1NC(=O)[C@H](CCC(=O)O)NC(=O)[C@H](CC(C)C)NC(=O)[C@@H]2CCCN2C(=O)[C@H](CCCNC(=N)N)NC(=O)[C@H](Cc2ccc(O)cc2)NC(=O)[C@@H]2CCCN2C(=O)[C@H](Cc2ccc(O)cc2)NC(=O)[C@H](CC(N)=O)NC(=O)[C@@H](Cc2ccc(O)cc2)NC(=O)CSC[C@@H](C(=O)NCC(N)=O)NC(=O)[C@H](Cc2ccc(O)cc2)NC(=O)[C@H](Cc2c[nH]c3ccccc23)NC(=O)CNC1=O [KD17] |  |  | did not observe any change; also recorded: does not inhibit Ras signaling | 
6 | NCCCC[C@H](N)C(=O)O [Lys, lysine] | about 3 fold | significantly lower |  | 

— patent publication US20230242586A1, “RAS INHIBITORS AND USES THEREOF” (The Regents of the University of California, priority 2020, published 2023)
